Patent publication US20230263808A1 (UNIVERSITY OF FLORIDA RESEARCH FOUNDATION, INCORPORATED, priority 2020, published 2023)
Entries after “also recorded” stand apart in the source; their conditions may differ. Read-outs that look alike come from different tables or passages of the source.

Assays:
[1] = system: primary human osteoblasts; assay: Osteoblast mineralization (Alizarin Red S) from mesenchymal stem cells; type: cell-based
Protocol: A) Each dot represents the effects of a compound in the indicated assays at 10 uM. N=4-6 from two different experiments. […] C) SR11466 is efficacious at inhibiting IL-6 secretion from A549 cells. C-E). […] D) Mitochondrial activity was measured in myoblasts using high content imaging with mitotracker dye after 24 treatment. New amino acid incorporation was measured with LICOR in cell western for puromycin (SunSet assay). E) top, MMTV-luciferase reporter data. N=3, mean+SEM. Bottom, Mineralization of primary human OBs was assayed after two weeks of differentiation from MSC and two weeks of mineralization. N=4, mean+SEM, 2-way ANOVA.
As a further test for dissociation, the compounds were profiled in primary human osteoblasts for effects on osteogenesis during 4 weeks of differentiation from mesenchymal stem cells. Specifically, osteoblast mineralization was examined as follows. Human mesenchymal stem cells (MSCs) at passage 2 were maintained in growth media consisted of alpha-MEM (Life Technologies, 32561-037) supplemented with 17% FBS (Sigma-Aldrich, 12303C), 2 mM L-glutarnine (Life Technologies, 25030-081), and 100 units/mL penicillin/streptomycin (Life Technologies, 15140-122). Effect of glucocorticoid receptor modulators on osteogenic differentiation of MSCs was quantified using Alizarin Red S (Sigma-Aldrich, A5533) staining. Briefly, human MSCs were seeded in the middle 8 wells of 48-well plates at plating density of 10,000 cells per well. PBS (Life Technologies, 10010-031) was added to surrounding wells to reduce evaporation of media in the middle wells during prolonged incubation. 24 h later, growth media was replaced by osteogenic induction media (OIM) consisted of low-glucose DMEM (Life Technologies, 10567-014) supplemented with 10% FBS (Sigma-Aldrich. 12303C), 50 μg/ml L-ascorbic-2-phosphate (Sigma-Aldrich, A8960), 10 mM β-glyceroiphosphate (Sigma-Aldrich, G9891), and glucocorticoid modulators. OIM containing test compounds was replaced every week. At the end of 2 weeks, monolayers were washed with PBS (Life Technologies, 10010-031), incubated in Richard-Allan Scientific™ Neutral Buffered Formalin (10%) (Thermo Scientific, 5725) for 2 h at room temperature, washed with deionized water and stained with Alizarin Red S for 30 min at room temperature. Monolayers were then rinsed 3×with deionized water until clear, stain was then extracted with 10% (w/v) cetylpyridinium chloride (Sigma-Aldrich, C0732) in 10 mM sodium phosphate (Sigma, S5011 and S5136), pH 7.0 for 15 min at room temperature and the amount of extracted dye quantified spectroscopically at 562 nm. Spectroscopic analysis performed using a synergy™ NEO HTS Multi-Mode Microplate Reader (BioTek Instruments, Inc.).

[2] = target: T1, glucocorticoid receptor (GR) (Homo sapiens, UniProt P04150); assay: GR-driven (MMTV) luciferase reporter assay, agonist and antagonist mode; type: cell-based
T1 construct: expressed in transfected cells; host or cells: 293T
T1 sequence (P04150 1-777): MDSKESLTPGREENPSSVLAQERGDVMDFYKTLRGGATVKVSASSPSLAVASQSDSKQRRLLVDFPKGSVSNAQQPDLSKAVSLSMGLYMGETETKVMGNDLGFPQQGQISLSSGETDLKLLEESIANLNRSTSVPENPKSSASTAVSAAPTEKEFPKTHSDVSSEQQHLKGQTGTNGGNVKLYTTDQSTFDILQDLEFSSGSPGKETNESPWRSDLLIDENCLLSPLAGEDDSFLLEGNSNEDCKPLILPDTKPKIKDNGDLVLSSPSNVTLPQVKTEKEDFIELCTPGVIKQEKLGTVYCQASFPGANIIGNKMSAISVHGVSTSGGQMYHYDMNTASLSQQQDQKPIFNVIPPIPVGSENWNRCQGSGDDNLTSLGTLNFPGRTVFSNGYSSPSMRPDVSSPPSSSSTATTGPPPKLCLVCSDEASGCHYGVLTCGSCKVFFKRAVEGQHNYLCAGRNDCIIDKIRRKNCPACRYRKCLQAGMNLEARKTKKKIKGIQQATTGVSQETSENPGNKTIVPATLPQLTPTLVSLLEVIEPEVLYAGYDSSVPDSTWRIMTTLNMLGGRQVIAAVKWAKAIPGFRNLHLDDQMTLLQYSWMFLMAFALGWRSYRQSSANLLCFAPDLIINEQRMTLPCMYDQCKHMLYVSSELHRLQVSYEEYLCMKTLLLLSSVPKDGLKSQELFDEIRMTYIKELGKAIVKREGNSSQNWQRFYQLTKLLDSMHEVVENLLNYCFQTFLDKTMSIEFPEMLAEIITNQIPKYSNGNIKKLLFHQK
Protocol: For native gene expression, C2C12 myotubes were treated compounds for 24 h. For MMTV-Luc assay, steroid-deprived 293T cells were co-transfected with a GR expression plasmid and an MMTV-driven luciferase reporter plasmid. The next day, cells were treated with compounds for 24 hrs. Each point represents the average of triplicate biological measurements for a separate compound. B) AR Luc assay development. Steroid-deprived 293T cells were transfected with AR expression plasmid and an ARR3-tk-driven luciferase reporter. The next day cells were treated with increasing doses of the indicated compounds. Data shown are mean+SD of triplicate measurements. C) AR-Luc assay identified 5 GCs with some AR activity.
A) The effects of all tested compounds on IL-1β-induced IL-6 production (x-axes) versus GR interaction with the indicated peptides. B-C) The effects of all tested compounds on the indicated GC-regulated phenotypes (x-axes) versus GR interaction with the CHD9_1023 and CENPR_1 peptides (y-axes). D-F) COC plots. Each point represents the Pearson correlation coefficient, r, between a distinct gene expression or GR-peptide interaction assay with assays indicated on the x and y axes. G) The effects of all tested compounds on IL-1β-induced IL-6 production (y-axes) versus insulin-induced protein synthesis. […] IL-β-induced IL-6 production by A549 cells treated with the indicated compounds was compared by AlphaLISA. […] Mice in panel K were subjected to a lactate-tolerance test (LTT).
For inclusion in the statistical analyses, assays were required to show high reproducibility, with a Pearson correlation >0.8 between different experiments (FIG. 2, H; FIG. 9, A). […] We also analyzed the effects of the compounds on expression of Fkbp5, Pdk4, and Klf15 mRNAs in C2C12 myotubes, and MMTV-luciferase and androgen receptor (AR) driven-luciferase activity in 293T cells. Fkbp5 and Pdk4 are among the most highly expressed GR target genes, while Klf15 is a known GR target gene that inhibits protein synthesis and stimulates expression of genes that facilitate protein degradation (Shimizu et al., Cell Metabol. 13, 170-182, 2011). We also analyzed the effects of compounds on nuclear translocation of GR using a quantitative HTS approach (Htun et al., Proc. Natl. Acad. Sci. USA 93, 4845-4850, 1996). To visualize the variance of the compounds, we expressed the data as Z score for each assay, in units of standard deviation (FIG. 9, A). […] We used an AR-luciferase assay to test for androgenic activity (FIG. 9, B). From this we identified a handful compounds with AR activity >5% (FIG. 9, C).

Row | Structure (SMILES) | effect on mineralization (bone) [1] | modulator profile (agonist/antagonist) [2] | EC50 ([2]; read-out: EC50 in a luciferase reporter assay) | IC50 ([2]; read-out: IC50 for GR-driven luciferase activity) | EC50 ([2]; assay not given, read-out: EC50) | IC50 ([2]; read-out: IC50 for displacing 10 nM Dex, antagonist mode, 10 nM Dex) | IC50 ([2]; read-out: IC50 in the reporter assay)
1 | C=CCOC1CC2(C)C(CCC2(O)C#CC)C2CCc3cc(C(=O)Nc4cccnc4C)ccc3C12 (centres unmarked) [SR11466] | modest improvements on mineralization | partial agonist | 0.1 nM | 0.24 nM |  |  | 
2 | CC#CC1(O)CCC2C3CCc4cc(C(=O)Nc5cnccc5C)ccc4C3C(O)CC21C (centres unmarked) [SR15421] | completely bone sparing |  |  |  | 240 nM |  | 
3 | CC#CC1(O)CCC2C3CCc4cc(C(=O)Nc5cccnc5C)ccc4C3C(OCc3ccccc3Cl)CC21C (centres unmarked) [SR16024] | bone sparing | full antagonist |  |  |  | 1 nM | 1.5 nM
4 | CC#CC1(O)CCC2C3CCc4cc(C(=O)Nc5cccnc5C)ccc4C3C(OCc3ccc(Cl)cc3)CC21C (centres unmarked) [SR16025] | more than quadrupled; also recorded: quadruple |  |  |  |  |  | 
